Results taken from patent publication US6706493B2, “DNA encoding a cholecystokinin receptor” (The United States of America as represented by the …, priority 1992, dated 2004).
Where no end group is shown, it is not given here.

What was measured:
CCKB receptor = biological target: T1, CCKB receptor (Rattus norvegicus, UniProt P30553); conditions: COS-7 cells, rat CCKB receptor cDNA, 50 pM radioligand
T1 sequence (P30553 1-452): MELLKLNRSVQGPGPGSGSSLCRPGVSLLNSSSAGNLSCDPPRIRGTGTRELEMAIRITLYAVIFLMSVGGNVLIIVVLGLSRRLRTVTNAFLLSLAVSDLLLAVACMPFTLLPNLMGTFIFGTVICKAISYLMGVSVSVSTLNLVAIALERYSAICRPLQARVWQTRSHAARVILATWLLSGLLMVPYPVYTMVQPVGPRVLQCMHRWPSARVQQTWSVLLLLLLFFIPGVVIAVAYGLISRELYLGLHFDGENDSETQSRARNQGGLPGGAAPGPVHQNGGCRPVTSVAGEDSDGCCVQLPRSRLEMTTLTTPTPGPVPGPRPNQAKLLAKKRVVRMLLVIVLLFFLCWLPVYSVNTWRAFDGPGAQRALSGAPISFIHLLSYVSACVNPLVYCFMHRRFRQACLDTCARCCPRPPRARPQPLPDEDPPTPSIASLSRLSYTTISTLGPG
Description: Each experiment was performed in duplicate and the results given are the means from at least two separate experiments.
Two micrograms of PCDL-SRα containing either the CCKA coding region insert subcloned at an Xba 1 site in the sense orientation or the CCKB insert subcloned at an Eco R1 site in the sense orientation were transfected into a near confluent 100 mm tissue culture plate containing approximately 1×10^6 COS-7 cells using a DEAE/dextran method. Approximately 48 hours post transfection, the cells were washed twice with phosphate buffered saline (PBS), pH 7.4, 0.1% BSA at 4° C., scraped from the plate in Dulbeccols Modified Eagle's Medium (DMEM), 0.1% BSA, 4° C., centrifuged at 400×G, and resuspended at approximately 3-105 cells per ml in DMEM, 0.1% BSA, 4° C. […] Cells were subsequently washed three times with 2 ml PBS, 0.1% BSA, 4° C. by filtration on glass filters (Whatman GF/B) using a suction manifold (Millipore). Filters were assayed for gamma radioactivity (Packard, Auto-Gamma).

acetylcholine receptor = assay: L-364,718 on ACh response in oocytes injected with ACh receptor mRNA; assay type: cell-based
Description: (§1) Inhibition was specific for CCKA receptors (i.e., there was no inhibition of SP or ACh response in oocytes injected with their respective receptor mRNAs).

substance P receptor = biological target: T2, substance P receptor (Rattus norvegicus, UniProt P14600); assay: L-364,718 on SP response in oocytes injected with SP receptor mRNA; assay type: cell-based
T2 construct: expressed in transfected cells; host or cells: Xenopus oocytes injected with receptor mRNA
T2 sequence (P14600 whole entry): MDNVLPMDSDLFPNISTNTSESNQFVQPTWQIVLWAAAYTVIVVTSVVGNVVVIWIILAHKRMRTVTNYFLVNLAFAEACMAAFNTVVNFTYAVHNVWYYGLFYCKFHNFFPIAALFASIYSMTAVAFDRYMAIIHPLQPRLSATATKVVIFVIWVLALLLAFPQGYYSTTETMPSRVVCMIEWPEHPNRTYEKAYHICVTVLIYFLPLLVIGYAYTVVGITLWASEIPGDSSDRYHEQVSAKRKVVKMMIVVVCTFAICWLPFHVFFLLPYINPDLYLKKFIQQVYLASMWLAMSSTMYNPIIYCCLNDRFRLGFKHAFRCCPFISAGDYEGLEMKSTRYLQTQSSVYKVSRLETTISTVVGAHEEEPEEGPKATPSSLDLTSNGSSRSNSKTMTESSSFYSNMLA
Description: as §1

CCKA receptor = biological target: T3, CCKA receptor (Rattus norvegicus, UniProt P30551); assay: Ligand-induced chloride current in Xenopus oocytes injected with rat CCKA receptor mRNA; assay type: cell-based; conditions: oocytes voltage clamped at -70 mV, 1 and 2 days after injection; FIG. 5A: 1 μM CCK-8, 1 μM gastrin-releasing peptide, 4 μM substance P
T3 construct: expressed in transfected cells; host or cells: Xenopus oocytes injected with in vitro transcribed RNA (clone nt 5 to 1506 in pcDNA-1)
T3 sequence (P30551 1-444): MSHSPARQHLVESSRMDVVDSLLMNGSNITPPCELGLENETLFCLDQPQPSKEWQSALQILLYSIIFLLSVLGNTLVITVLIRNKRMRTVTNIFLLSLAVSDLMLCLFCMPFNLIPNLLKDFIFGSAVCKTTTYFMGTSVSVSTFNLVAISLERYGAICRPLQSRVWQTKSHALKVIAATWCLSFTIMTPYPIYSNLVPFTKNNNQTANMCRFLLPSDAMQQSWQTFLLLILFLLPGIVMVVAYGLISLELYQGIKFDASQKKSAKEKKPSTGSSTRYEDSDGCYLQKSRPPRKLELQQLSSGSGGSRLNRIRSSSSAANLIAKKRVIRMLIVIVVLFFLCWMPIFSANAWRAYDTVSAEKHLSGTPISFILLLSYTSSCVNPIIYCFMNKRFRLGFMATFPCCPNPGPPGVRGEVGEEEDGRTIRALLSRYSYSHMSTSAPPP
Description: FIGS. 5A and 5B. Expression of the CCKA receptor in Xenopus oocytes. Ligand, induced chloride currents measured in the same oocytes one (A) and two (B) days after injection of mRNA (25 ng) in vitro transcribed from CCKA receptor cDNA cloned from rat pancreas. A. Response to agonists.
DNA was in vitro transcribed using T7 RNA polymerase from a CCK receptor clone template (5 to 1506, FIG. 1, SEQ NO:13) in pcDNA-1 (5 μg linearized with Apa 1) in the presence of the cap analog m^7G(5′)ppp(5′)G as recommended by the manufacturer (Promega). Xenopus oocytes were injected with 50 nl of approximately 25 ng of transcribed RNA. At 1-2 days, oocytes were voltage clamped at −70 mV, ligands were applied rapidly and directly to the constantly perfused bath and the ligand dependent Cl^− current measured.

Compound: Cc1cccc(NC(=O)N[C@@H]2N=C(c3ccccc3)c3ccccc3N(C)C2=O)c1 [L-365,260]
- potency at inhibiting 125I-BH-CCK-8 binding relative to L-364,718 (CCKB receptor): 10-100 fold

Compound: CN1C(=O)[C@@H](NC(=O)c2cc3ccccc3[nH]2)N=C(c2ccccc2)c2ccccc21 [L-364,718]
- inhibition of ACh response (acetylcholine receptor): no inhibition
- inhibition of SP response (substance P receptor): no inhibition

Compound: gastrin-releasing peptide (VPLPAGGGTVLTKMYPRGNHWAVGHLM; ends and bridges not checked; UniProt P07492 24-50, looked up)
- response of oocytes to agonist (ligand dependent Cl- current) (CCKA receptor): not

Compound: substance P
- response of oocytes to agonist (ligand dependent Cl- current) (CCKA receptor): not
